# Experimental data taken from US8586108B2, “Extracts of Chenopodium ambrosioides L., the compositions comprising said extracts, the preparing process and application thereof” (Tasly Pharmaceutical Group Co., Ltd, priority 2005, dated 2013).
# Marks after values point to notes of the source that are not given here.
# Assays:
# [1] = system: acetic acid-cautery type gastric ulcer; assay: Effect on gastric ulcer of rats induced by acetic acid cautery; type: in vivo, Wistar rats; conditions: 200 mg/kg i.g. once per day for 13 days; X ± SD, n = 10
# Experimental: Eighty Wistar rats weighing between 200-220 g were selected in this experiment, male and female in half, and were randomly divided into 8 groups, 10 rats per group. Drugs were continually administered i.g. with the dosage listed in Table 2 for 13 days, once per day, while the model control group was administered i.g. with the same volume of vegetable oil. The model was established after 2 hours of the third administration. The rats were fasted for 24 hours before model-establishing and anaesthetized by ether, their abdomens were shaved and sterilized. A small incision was cut along the midline of the xiphoid. The stomach was gently pulled out, 10 μL 40% acetic acid was injected underneath the stomach chorion near pyloric gland areas. The stomach was then put back to the abdomen, and the incision was sewed up. Drugs were administered after operation. The rats were fasted for 24 hours after the last administration, and the animals were executed after being anaesthetized by urathane. […] After rinsing the content of stomach with saline, the stomach was fixed with 1% formaldehyde for 10 min, and then the diameters of ulcer points were measured using precise calipers and the ulcer areas were calculated. Ink was injected with a micro-syringe until its level reached the surface of gastric mucous membrane, and the volume of the injected ink was recorded. […]
# [2] = system: gastric ulcers of pyloric ligation type; assay: Effect on gastric ulcers of pyloric ligation type in rats; type: in vivo, Wistar rats; conditions: 200 mg/kg i.g. once per day for 3 days; 5 grades by Okabe's method; X ± SD, n = 10
# Experimental: Eighty Wistar rats weighing about 160 g were selected in this experiment, male and female in half, and were randomly divided into 8 groups, 10 rats per group. Drugs were continually administered i.g. with the dosage listed in Table 3 for 3 days, once per day, while the model control group was administered i.g. with the same volume of vegetable oil. The animals were anaesthetized by ether after 2 hours of the last administration (the rats were fasted for 48 hours before administration), and their abdomens were shaved and sterilized. A small incision was cut below the xiphoid. Their stomach was gently pulled out, and the stomach was then put back to the abdomen after pyloric ligation, and the incision was sewed up. After operation, the rats were abstained from food and water for 6 hours and executed after anaesthesia. The abdomen was cut open, the cardia was ligated, and the whole stomach was taken out and cut open along the greater curvature of stomach. After rinsing the content of stomach with saline, the stomach was fixed with 1% formaldehyde for 10 min, and then the diameters of the ulcer points were measured using precise calipers. Degree of the ulcer was expressed by total area of all ulcer points of each rat and was classified into 5 grades according to Okabe's method as index of ulcer.
structure (smiles),measurement,setting,value
CNC(=C[N+](=O)[O-])NCCSCc1ccc(CN(C)C)o1 [Ranitidine],Ulcer area,[1],8.08 ± 5.72** mm^2
same,Volumes of injected ink in ulcer region,[1],2.85 ± 2.63 µL
same,Index of Ulcer,[2],0.8 ± 0.6
